Experimental findings from patent publication US4921847A, “Trihalo(amine)gold(III) anti-tumor complexes” (Engelhard Corporation, priority 1989, dated 1990) are described below.

A value given as a limit tells only on which side of the number the result lay.

The test system of data set [1] is Sarcoma 180 tumors. Briefly: Therapeutic index (LD50/ED90), implanted Sarcoma 180 tumors. It is filed as in vivo, Swiss white mice. The arrangement: ED90: unit not given here. The settings on record: for Therapeutic Index: LD50/ED90; for Maximum % ILS (Dosage): S 180 ascites, 40 mg/kg; for ED90: dose giving 50% increase in life span for 90% of the animals, determined graphically.

In data set [2] the test system is S180 ascites. Briefly: Anti-tumor evaluation against S180 ascites in mice (% increase in life span, survivors). The class given is in vivo, female CFW Swiss mice. The settings on record: S 180 ascites; for Survivors: day of evaluation. The procedure: The above prepared compounds were evaluated against S180 ascites in female CFW Swiss mice. The mice were weighed (average weight: 20 g), placed into cages (six mice to a cage) and on day zero the mice were inoculated with 0.2 ml of a freshly prepared saline suspension (0.15 M NaCl) containing 1×10^7 tumor cells/ml or a total of 2×10^6 cells. This inoculum was freshly prepared using "transfer" mice which had been injected with tumor cells the previous week; it was obtained via the following steps: (1) the removal of cells from the peritoneal cavity of the sacrificed transfer mouse, (2) alternate centrifugation and washing operations (2-3 times with cold saline) to remove blood and other components, and (3) dilution of the volume of the packed cell with saline (1:3). A final centrifugation was carried out at 1000 RPM over a two minute period. A cell count was made on a 2,000-fold dilution of this 1:3 suspension by means of a Coulter Counter. A final dilution to 1×10^7 cells/ml was made based on the average count.
On day 1, solutions of the test compounds were prepared and each mouse in a set of six were injected with the same test compound at the same dosage. The doses were based on the average weight of the animals (cage weight). Also, beginning on day 1 two controls were employed containing six mice per control:
(1) Normal Control: This consisted solely of the carrier or diluent used in combination with the test compound; and
(2) Positive Control: This consisted solely of the known anti-tumor agent cis-[Pt(NH3)2 Cl2 ] (Cisplatin) in saline (8 mg/kg) to test the response of the biological system.
The effectiveness of a test compound was measured in terms of the % increase in life span (%ILS) of the test mice relative to the Normal Control (Calculated from the day of tumor inoculation, i.e., day zero). To standardize the test data and permit intercomparisons, the day of evaluation was arbitrarily taken as that day corresponding to twice the mean life span (or average day of death) of the control. This established a practical upper limit of 100% on the %ILS attainable. For calculation purposes the survivors on the day of evaluation were considered to have died on that day. The %ILS was calculated as follows: [formula] ILS values in excess of 50% were interpreted as being indicative of anti-tumor activity, whereas, values in excess of 75% indicated excellent activity.
The products of Examples 1, 4, 10 and 11 were administered in a freshly prepared 1% sodium bicarbonate solution; the remaining test compounds were administered as slurries in 0.5% "Klucel" (hydroxypropylcellulose).

Take `Cn1cc[n+]([Au-]([Cl])([Cl])[Cl])c1` [Example 2, Trichloro(N-Methylimidazole)Gold(III)]: the “Therapeutic Index” value in data set [1] is on record as 2.8. In addition, the “Maximum % ILS (Dosage)” value in data set [1] was 91%. The compound further showed an ED90 in data set [1] of 31. Besides, the “peak ILS values” in data set [2] is given as over 90%. The “% ILS” value is 2% in data set [2] (5 mg/kg); 14% in data set [2] (10 mg/kg); 33% in data set [2] (20 mg/kg); 91% in data set [2] (40 mg/kg); 53% in data set [2] (80 mg/kg); -93% in data set [2] (160 mg/kg). Moreover, the Survivors in data set [2] (5 mg/kg) is listed as 0 of 6; in data set [2] (10 mg/kg) it was 0 of 6; in data set [2] (20 mg/kg) it was 1 of 6; in data set [2] (40 mg/kg), 4 of 6; in data set [2] (80 mg/kg) it was 1 of 6; in data set [2] (160 mg/kg), 0 of 6. Further, the “Anti-tumor activity (in words)” value in data set [2] (50% ILS criterion) is “decidedly active”. The active dose range in data set [2] (decidedly active within the range) lay in the range of 20 to 40 mg/kg.
With `CC(=O)c1ccc[n+]([Au-]([Cl])([Cl])[Cl])c1` [Example 3, trichloro(3-acetylpyridine)gold(III)], in data set [1], the “Therapeutic Index” value was 4.5. Also, the “Maximum % ILS (Dosage)” value in data set [1] is recorded as 97%. For the same compound, in data set [1], the ED90 turned out to be 31. Further, in data set [2], the “peak ILS values” is recorded as over 90%. In addition, the “% ILS” value is on record as -5% in data set [2] (10 mg/kg); 42% in data set [2] (20 mg/kg); 97% in data set [2] (40 mg/kg); 66% in data set [2] (80 mg/kg); 23% in data set [2] (160 mg/kg); -90% in data set [2] (320 mg/kg). The Survivors is 0 of 6 in data set [2] (10 mg/kg); 1 of 6 in data set [2] (20 mg/kg); 5 of 6 in data set [2] (40 mg/kg); 4 of 6 in data set [2] (80 mg/kg); 0 of 6 in data set [2] (160 mg/kg); 0 of 6 in data set [2] (320 mg/kg).
For the compound `Oc1ccc[n+]([Au-]([Cl])([Cl])[Cl])c1` [Example 5], the “Maximum % ILS (Dosage)” value in data set [1] turned out to be 61%. In data set [1], the ED90 is recorded as 87. Besides, the “% ILS” value in data set [2] (10 mg/kg) was 9%; in data set [2] (20 mg/kg), 39%; in data set [2] (40 mg/kg), 61%; in data set [2] (80 mg/kg) it was 30%; in data set [2] (160 mg/kg), -36%; in data set [2] (320 mg/kg), -85%. Besides, the Survivors is on record as 0 of 6 in data set [2] (10 mg/kg); 2 of 6 in data set [2] (20 mg/kg); 3 of 6 in data set [2] (40 mg/kg); 2 of 6 in data set [2] (80 mg/kg); 0 of 6 in data set [2] (160 mg/kg); 0 of 6 in data set [2] (320 mg/kg).
Consider `OCc1ccc[n+]([Au-]([Cl])([Cl])[Cl])c1` [Example 6], for which, in data set [1], the “Therapeutic Index” value was determined as 2.1. Further, the “Maximum % ILS (Dosage)” value in data set [1] was 85%. The ED90 in data set [1] stood at 43. Moreover, the “% ILS” value was 6% in data set [2] (10 mg/kg); 63% in data set [2] (20 mg/kg); 85% in data set [2] (40 mg/kg); 46% in data set [2] (80 mg/kg); -70% in data set [2] (160 mg/kg); -93% in data set [2] (320 mg/kg). Also, the Survivors in data set [2] (10 mg/kg) is listed as 0 of 6; in data set [2] (20 mg/kg) it was 1 of 6; in data set [2] (40 mg/kg), 3 of 6; in data set [2] (80 mg/kg), 0 of 6; in data set [2] (160 mg/kg) it was 0 of 6; in data set [2] (320 mg/kg), 0 of 6.
